In test [1] the test system is cGAS activity in THP1 cells. In words: Cellular assay: ISRE-Gaussia luciferase reporter THP1 cells transfected with ISD (Interferon Stimulatory DNA). It counts as cell-based. To be noted: Homo sapiens, THP-1; ISRE-Gaussia luciferase reporter THP1 cells transfected with 2 μg/mL ISD, 16 hours; read-out: THP1-ISD (Inhibition of cGAS activity in THP1 cells, IC50). Summed up: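 ISRE (5×)-Gaussia luciferase reporter THP1 cells (0.3×10^6/well) were pretreated with compound for 5 min, then lipofected with 2 μg/mL ISD or mock-transfected. For the specificity readout, cells instead received 2 μg/mL poly(I:C) or SeV at 50 Unit/mL. Supernatant luminescence was read after 16 h with coelenterazine, and IC50 was fitted from fold induction over mock.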

Test [2] deals with T1, recombinant cGAS (aa147-522) (Homo sapiens, UniProt Q8N884).
T1 construct: recombinant cGAS (aa147-522); His6-SUMO (N, cleaved yes); made in house; host or cells: E. coli BL21/pLys
T1 sequence (Q8N884 147-522): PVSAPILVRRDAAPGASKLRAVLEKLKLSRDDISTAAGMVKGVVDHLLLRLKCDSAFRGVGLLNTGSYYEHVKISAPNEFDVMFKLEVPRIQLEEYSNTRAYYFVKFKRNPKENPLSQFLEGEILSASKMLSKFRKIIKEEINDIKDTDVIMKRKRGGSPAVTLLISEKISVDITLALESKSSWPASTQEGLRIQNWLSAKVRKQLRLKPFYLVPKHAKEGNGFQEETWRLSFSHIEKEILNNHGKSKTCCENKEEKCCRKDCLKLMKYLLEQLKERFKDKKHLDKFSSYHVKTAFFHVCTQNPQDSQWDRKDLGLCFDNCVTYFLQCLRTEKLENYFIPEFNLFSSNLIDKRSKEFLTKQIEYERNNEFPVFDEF
In words: In vitro assay for inhibition of cGAS activity (ATP consumption, Kinase Glo). It counts as biochemical. To be noted: 37° C. 20 minutes, read-out: Activity (Inhibition of cGAS enzyme activity in vitro, IC50). In short, it runs like this: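 Human cGAS (aa147-522) at 1.5 ng/μL incubated with serially diluted compound at 37° C for 20 min; remaining ATP read by Kinase Glo luminescence. IC50 from percent ATP consumption plotted against log compound concentration.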
(In general: In Kinase-Glo more light means more ATP remaining.)

Test [3] deals with RIG-I-MAVS pathway. In words: Specificity assay: ISRE reporter THP1 cells infected with Sendai Virus (SeV). It counts as cell-based. Particulars: Homo sapiens, THP-1; ISRE-Gaussia luciferase reporter THP1 cells infected with Sendai Virus (SeV) at 50 Unit/mL. As to the method: A reporter THP1 cell line harboring a gene encoding Gaussia Luciferase under the control of 5 tandem repeats of interferon-stimulated response elements (ISRE) was used to test inhibition of cGAS activity by synthetic compounds in human cells. These cells were plated on 96-well plates at 0.3×10^6/well and incubated with various concentrations of compounds or DMSO for 5 min, followed by transfection of 2 μg/mL of ISD (Interferon Stimulatory DNA, a 45 bp DNA oligo) or mock transfected using lipofectamine 2000 (Life Technology) method, according to manufacturer's instructions. 16 hours later, 15 μL of the media from each well is transferred to a new plate, 50 μL of solution containing 50 mM Hepes-NaOH, 50 mM NaCl, 10 mM EDTA, 1 μM of coeleanterazine was added to each well and luminescence was measured immediately. Fold increase in luminescence compared to mock transfection is plotted against concentrations of each compound, and IC50 is calculated using Graphpad. To evaluate the specificity of a compound, the same procedure was performed except that cells were transfected with 2 μg/mL poly(I:C) or infected with Sendai Virus (SeV) at 50 Unit/mL, which are known to activate the RIG-I-MAVS pathway. A specific inhibitory compound should inhibit interferon induction by DNA but have minimal effect on poly(I:C) or Sendai virus induced interferon reporter gene expression.
(Reporter assays use an easily measured gene product as a stand-in for the process of interest.)

The record followed here is patent US12065416B2, “cGAS antagonist compounds” (IMMUNESENSOR THERAPEUTICS, INC., priority 2016, dated 2024).

Each structure is given as a SMILES string.

In the case of `O=C1/C(=C/c2cc(CC(F)(F)F)c(O)cc2Br)Sc2ncccc21` [ExB21], the IC50 (in general, the concentration needed to halve the response being measured) was 2.5 to 10 µM in test [1], no more than 0.5 µM in test [2] and no less than 10 µM in test [3].

On to `[2H]C([2H])(Oc1cc(/C=C2\SC(=O)N(C)C2=O)c(Br)cc1O)c1cnc(N)nc1` [ExB35], for which the values for the IC50 in test [1], in test [2] and in test [3] were no more than 2.5 µM, no more than 0.5 µM and no less than 10 µM, respectively.

`CN1C(=O)S/C(=C\c2cc3c(-c4cnc(N)nc4)c[nH]c3c(F)c2Br)C1=O` [ExB40]: the IC50 in test [1] was 2.5 to 10 µM; in test [2], no more than 0.5 µM; in test [3], no less than 10 µM.

Consider `CN1C(=O)S/C(=C\c2cc3c(Cc4cnc(N)nc4)c[nH]c3c(F)c2Br)C1=O` [ExB43], for which the figures for the 50% inhibitory concentration (IC50) in test [1], in test [2] and in test [3] were no less than 10 µM, no more than 0.5 µM and no less than 10 µM, respectively.

For `CCC(Oc1cc(/C=C2\SC(=O)N(C)C2=O)c(Br)c(F)c1O)c1cnc(N)nc1` (stereo not drawn) [ExB44], the IC50 in test [1] is 2.5 to 10 µM; in test [2] it was no more than 0.5 µM; in test [3] it was no less than 10 µM.
